According to PubChem BioAssay (NCI):
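1) Cells in 96-well plates. 2) Compound, 48 h, 5 concentrations. 3) Linear interpolation between surrounding doses. 4) Unreached endpoint = highest concentration. Definition used: TGI = concentration required for complete inhibition of growth.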

Columns and labels:
Test in all cases: NCI tumour cell line growth inhibition, 48 h
SNB-75 CNS = system: SNB-75 CNS
CAKI-1 renal = system: CAKI-1 renal
MALME-3M melanoma = system: MALME-3M melanoma
T-47D breast = system: T-47D breast
NCI-H460 lung = system: NCI-H460 lung
CCRF-CEM leukemia = system: CCRF-CEM leukemia
LOX IMVI melanoma = system: LOX IMVI melanoma
HCT-116 colon = system: HCT-116 colon
NCI-H23 lung = system: NCI-H23 lung
A498 renal = system: A498 renal
SF-295 CNS = system: SF-295 CNS
SW-620 colon = system: SW-620 colon
SK-MEL-5 melanoma = system: SK-MEL-5 melanoma
SNB-19 CNS = system: SNB-19 CNS
786-0 renal = system: 786-0 renal
DU-145 prostate = system: DU-145 prostate
HL-60(TB) leukemia = system: HL-60(TB) leukemia
UACC-257 melanoma = system: UACC-257 melanoma
SK-MEL-28 melanoma = system: SK-MEL-28 melanoma
MOLT-4 leukemia = system: MOLT-4 leukemia
TK-10 renal = system: TK-10 renal
HT29 colon = system: HT29 colon
KM12 colon = system: KM12 colon
A549 NSCLC = system: A549 NSCLC
HS 578T breast = system: HS 578T breast
ACHN renal = system: ACHN renal
MCF7 breast = system: MCF7 breast
M14 melanoma = system: M14 melanoma
SK-MEL-2 melanoma = system: SK-MEL-2 melanoma
SN12C renal = system: SN12C renal
HOP-62 NSCLC = system: HOP-62 NSCLC
K-562 leukemia = system: K-562 leukemia
MDA-MB-435 = system: MDA-MB-435
OVCAR-8 ovarian = system: OVCAR-8 ovarian
BT-549 breast = system: BT-549 breast
COLO 205 colon = system: COLO 205 colon
OVCAR-3 ovarian = system: OVCAR-3 ovarian
UACC-62 melanoma = system: UACC-62 melanoma
NCI/ADR-RES ovarian = system: NCI/ADR-RES ovarian
IGROV1 ovarian = system: IGROV1 ovarian
EKVX NSCLC = system: EKVX NSCLC
RXF 393 renal = system: RXF 393 renal
SF-539 CNS = system: SF-539 CNS
HOP-92 NSCLC = system: HOP-92 NSCLC
OVCAR-4 ovarian = system: OVCAR-4 ovarian
PC-3 prostate = system: PC-3 prostate
SF-268 CNS = system: SF-268 CNS
HCC-2998 colon = system: HCC-2998 colon
HCT-15 colon = system: HCT-15 colon
UO-31 renal = system: UO-31 renal
SR leukemia = system: SR leukemia
NCI-H522 lung = system: NCI-H522 lung
SK-OV-3 ovarian = system: SK-OV-3 ovarian
U251 CNS = system: U251 CNS
OVCAR-5 ovarian = system: OVCAR-5 ovarian
NCI-H226 lung = system: NCI-H226 lung
RPMI-8226 leukemia = system: RPMI-8226 leukemia
MDA-MB-231 breast = system: MDA-MB-231 breast

With Cc1ccc(-c2n[nH]c(CC#N)n2)cc1 the TGI (SNB-75 CNS) was > 100 µM, the TGI (CAKI-1 renal) was > 100 µM and the TGI (MALME-3M melanoma) was > 100 µM. The TGI (T-47D breast) was > 100 µM, the TGI (NCI-H460 lung) was > 100 µM and the TGI (CCRF-CEM leukemia) was > 100 µM. The TGI (LOX IMVI melanoma) was > 100 µM, the TGI (HCT-116 colon) was > 100 µM and the TGI (NCI-H23 lung) was > 100 µM. The TGI (A498 renal) was > 100 µM, the TGI (SF-295 CNS) was > 100 µM and the TGI (SW-620 colon) was > 100 µM. The TGI (SK-MEL-5 melanoma) was > 100 µM, the TGI (SNB-19 CNS) was > 100 µM and the TGI (786-0 renal) was > 100 µM. For the same compound, the TGI (DU-145 prostate) was > 100 µM, the TGI (HL-60(TB) leukemia) was > 100 µM and the TGI (UACC-257 melanoma) was > 100 µM. For the same compound, the TGI (SK-MEL-28 melanoma) was > 100 µM, the TGI (MOLT-4 leukemia) was > 100 µM and the TGI (TK-10 renal) was > 100 µM. For the same compound, the TGI (HT29 colon) was > 100 µM, the TGI (KM12 colon) was > 100 µM and the TGI (A549 NSCLC) was > 100 µM. For the same compound, the TGI (HS 578T breast) was > 100 µM, the TGI (ACHN renal) was > 100 µM and the TGI (MCF7 breast) was > 100 µM. For the same compound, the TGI (M14 melanoma) was > 100 µM, the TGI (SK-MEL-2 melanoma) was > 100 µM and the TGI (SN12C renal) was > 100 µM. The TGI (HOP-62 NSCLC) was > 100 µM, the TGI (K-562 leukemia) was > 100 µM and the TGI (MDA-MB-435) was > 100 µM. The TGI (OVCAR-8 ovarian) was > 100 µM, the TGI (BT-549 breast) was > 100 µM and the TGI (COLO 205 colon) was > 100 µM. The TGI (OVCAR-3 ovarian) was > 100 µM, the TGI (UACC-62 melanoma) was > 100 µM and the TGI (NCI/ADR-RES ovarian) was > 100 µM. The TGI (IGROV1 ovarian) was > 100 µM, the TGI (EKVX NSCLC) was > 100 µM and the TGI (RXF 393 renal) was > 100 µM. The TGI (SF-539 CNS) was > 100 µM, the TGI (HOP-92 NSCLC) was > 100 µM and the TGI (OVCAR-4 ovarian) was > 100 µM. The TGI (PC-3 prostate) was > 100 µM, the TGI (SF-268 CNS) was > 100 µM and the TGI (HCC-2998 colon) was > 100 µM. The TGI (HCT-15 colon) was > 100 µM, the TGI (UO-31 renal) was > 100 µM and the TGI (SR leukemia) was > 100 µM. The TGI (NCI-H522 lung) was > 100 µM, the TGI (SK-OV-3 ovarian) was > 100 µM and the TGI (U251 CNS) was > 100 µM. For the same compound, the TGI (OVCAR-5 ovarian) was > 100 µM.

In the case of CCOC(=O)C1=C(C)N(Cc2ccc(Cl)cc2Cl)C2(O)C(OC)CC(=O)C3C(=O)N(c4ccccc4)C(=O)C132 (stereo not given), the TGI (CAKI-1 renal) was 19.5 µM, the TGI (MALME-3M melanoma) was 23.9 µM and the TGI (T-47D breast) was 2.57 µM. It also gave a TGI (NCI-H460 lung) of 12.5 µM, a TGI (NCI-H226 lung) of 9.02 µM and a TGI (CCRF-CEM leukemia) of 4.11 µM. It also gave a TGI (LOX IMVI melanoma) of 2.23 µM, a TGI (HCT-116 colon) of 4.12 µM and a TGI (NCI-H23 lung) of 15.7 µM. The TGI (A498 renal) was 22.7 µM, the TGI (SF-295 CNS) was 20.2 µM and the TGI (SW-620 colon) was 7.15 µM. It also gave a TGI (SK-MEL-5 melanoma) of 16.2 µM, a TGI (SNB-19 CNS) of 11.8 µM and a TGI (786-0 renal) of 4.11 µM. It also gave a TGI (DU-145 prostate) of 2.75 µM, a TGI (HL-60(TB) leukemia) of 6.9 µM and a TGI (UACC-257 melanoma) of 18.2 µM. For the same compound, the TGI (SK-MEL-28 melanoma) was 4.37 µM, the TGI (MOLT-4 leukemia) was 7.82 µM and the TGI (RPMI-8226 leukemia) was 8.61 µM. The TGI (TK-10 renal) was 22.8 µM, the TGI (HT29 colon) was 4 µM and the TGI (KM12 colon) was 9.03 µM. For the same compound, the TGI (A549 NSCLC) was 12.4 µM, the TGI (HS 578T breast) was 92.8 µM and the TGI (ACHN renal) was 15.2 µM. The TGI (MCF7 breast) was 8.46 µM, the TGI (M14 melanoma) was 13.5 µM and the TGI (SK-MEL-2 melanoma) was 7.01 µM. It also gave a TGI (SN12C renal) of 9.9 µM, a TGI (HOP-62 NSCLC) of 2.51 µM and a TGI (K-562 leukemia) of 3.87 µM. For the same compound, the TGI (MDA-MB-435) was 11.8 µM, the TGI (OVCAR-8 ovarian) was 6.19 µM and the TGI (BT-549 breast) was 5.61 µM. For the same compound, the TGI (COLO 205 colon) was 13.4 µM, the TGI (OVCAR-3 ovarian) was 3.44 µM and the TGI (UACC-62 melanoma) was 11.9 µM. The TGI (NCI/ADR-RES ovarian) was 7.63 µM, the TGI (IGROV1 ovarian) was 16.9 µM and the TGI (EKVX NSCLC) was 16.7 µM. The TGI (RXF 393 renal) was 3.14 µM, the TGI (SF-539 CNS) was 12.7 µM and the TGI (HOP-92 NSCLC) was 7.95 µM. It also gave a TGI (OVCAR-4 ovarian) of 8.05 µM, a TGI (PC-3 prostate) of 15.1 µM and a TGI (SF-268 CNS) of 14.3 µM. It also gave a TGI (HCC-2998 colon) of 5.29 µM, a TGI (HCT-15 colon) of 2.64 µM and a TGI (UO-31 renal) of 18.7 µM. It also gave a TGI (NCI-H522 lung) of 7.56 µM, a TGI (U251 CNS) of 3.69 µM and a TGI (MDA-MB-231 breast) of 7.16 µM. It also gave a TGI (OVCAR-5 ovarian) of 28.5 µM.
